Test results from ChEMBL document CHEMBL2401610, “N-Benzyloxycarbonyl-S-(2,4-dinitrophenyl)glutathione dibutyl diester is inhibitory to melarsoprol resistant cell lines overexpressing the T. bruceiMRPA transporter” (Bioorg Med Chem Lett, 2013).

How the values were obtained:
[1] = tested on: Trypanosoma brucei brucei; experiment: Resistant factor, ratio of IC50 for bloodstream form of Trypanosoma brucei brucei expressing TbMRPA protein to IC50 for bloodstream form of wild type Trypanosoma brucei 247; type: functional
[2] = tested on: Trypanosoma brucei brucei; experiment: Antitrypanosomal activity against bloodstream form of Trypanosoma brucei brucei expressing TbMRPA protein after 3 days by microplate assay; type: functional, organism-based; conditions: 72 h
[3] = tested on: Trypanosoma brucei brucei; experiment: Antitrypanosomal activity against bloodstream form of wild type Trypanosoma brucei brucei 247 after 3 days by microplate assay; type: functional, organism-based; conditions: Trypanosoma brucei, 247, 72 h

With `N[C@@H](CCC(=O)N[C@@H](CSC(=O)c1ccc(Br)cc1)C(=O)NCC(=O)O)C(=O)O` the “Ratio IC50” value [1] was 1.8, the IC50 [2] was 163 µM and the IC50 [3] was 87.5 µM.
In the case of `Nc1nc(N)nc(Nc2ccc([As]3SCC(CO)S3)cc2)n1` (stereo not drawn) [MELARSOPROL], the “Ratio IC50” value [1] is reported as 10.
In the case of `CCCCOC(=O)CNC(=O)[C@H](CSc1ccc([N+](=O)[O-])cc1[N+](=O)[O-])NC(=O)CC[C@H](NC(=O)OCc1ccccc1)C(=O)OCCCC`, the “Ratio IC50” value [1] is reported as 1.4, the IC50 [2] is reported as 6.5 µM and the IC50 [3] is reported as 4.5 µM.
In the case of `O=C(O)CNC(=O)[C@H](CSC(=O)c1ccc(Br)cc1)NC(=O)CC[C@H](NC(=O)OCc1ccccc1)C(=O)O`, the “Ratio IC50” value [1] is reported as 182, the IC50 [2] is reported as 785 µM and the IC50 [3] is reported as 4.3 µM.
For `COC(=O)CNC(=O)[C@H](CSC(=O)c1ccc(Br)cc1)NC(=O)CC[C@H](NC(=O)OCc1ccccc1)C(=O)OC`, the “Ratio IC50” value [1] was 16.6, the IC50 [2] was 58 µM and the IC50 [3] was 3.5 µM.
